Reference: ChEMBL document CHEMBL1201862, “PubChem BioAssay data set” (2004)
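96-well plates; 48 h exposure; 5 concentrations. Endpoints by linear interpolation between flanking doses. Not reached: highest tested concentration assigned. GI50 marks 50% less growth.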 Activity calls are given as the source filed them. No stated cut-off is given here; in the data, active = GI50 up to about 1.1 µM and inactive = higher.

Assays:
Test in all cases: DTP human tumour cell line panel, 48 h
[1] = tested on: ACHN
[2] = tested on: CCRF-CEM
[3] = tested on: DU-145
[4] = tested on: HCC 2998
[5] = tested on: HOP-92
[6] = tested on: HT-29
[7] = tested on: IGROV-1
[8] = tested on: NCI-H226
[9] = tested on: NCI-H460
[10] = tested on: NCI/ADR-RES
[11] = tested on: OVCAR-3
[12] = tested on: OVCAR-5
[13] = tested on: RXF 393
[14] = tested on: SK-OV-3
[15] = tested on: SNB-75
[16] = tested on: SR
[17] = tested on: SW-620
[18] = tested on: T47D
[19] = tested on: U-251
[20] = tested on: NCI-H522

Measured: GI50

O=C1OCN(c2ccccc2)C12CCN(Cc1ccccc1)CC2
inactive: [1] 49.2 µM | [2] 15.5 µM | [3] 66.4 µM | [4] 6.62 µM | [5] 39.3 µM | [6] 16.4 µM | [7] 59.8 µM | [8] > 100 µM | [9] 22.9 µM | [10] 50.4 µM | [11] > 10 µM | [12] > 100 µM | [13] 16.9 µM | [14] 74.6 µM | [15] 19.4 µM | [16] 34.4 µM | [17] 18 µM | [18] 23 µM | [19] 16.9 µM

CCCCCCCCCCCCCCCCOC[C@H](COC(c1ccccc1)(c1ccccc1)c1ccccc1)O[PH](=S)OC (stereo partly specified)
inactive: [1] > 100 µM | [2] > 100 µM | [3] > 100 µM | [5] > 100 µM | [6] > 100 µM | [7] > 100 µM | [8] > 100 µM | [9] > 100 µM | [20] > 100 µM | [10] > 100 µM | [11] > 100 µM | [12] > 100 µM | [13] > 100 µM | [14] > 100 µM | [15] > 100 µM | [16] > 100 µM | [17] > 100 µM | [18] > 100 µM | [19] > 100 µM

N=C(N)N/N=C/c1c(-c2ccccc2[N+](=O)[O-])nc2sccn12
inactive: [1] 39.3 µM | [2] 19.4 µM | [3] 48.2 µM | [5] 27.1 µM | [6] 27.7 µM | [7] 37.6 µM | [8] 17.4 µM | [9] 19.1 µM | [20] 17 µM | [10] > 100 µM | [11] 24.9 µM | [12] 30.7 µM | [13] 12.6 µM | [14] 42.9 µM | [15] 11.9 µM | [16] 14.4 µM | [17] 18.4 µM | [18] 18.3 µM | [19] 15.8 µM

S=C(N/N=C/c1ccccn1)N1CCCCC1
active: [1] < 0.01 µM | [2] < 0.01 µM | [3] 0.243 µM | [5] 0.212 µM | [6] < 0.01 µM | [7] < 0.01 µM | [9] < 0.019 µM | [10] < 0.01 µM | [11] < 0.01 µM | [13] 0.0705 µM | [14] < 0.01 µM | [15] 0.0315 µM | [16] < 0.01 µM | [17] < 0.0122 µM | [18] < 0.01 µM | [19] < 0.0126 µM
inactive: [4] 1.22 µM

COc1ccccc1/N=N/C(=N\NC(=O)c1ccc(C)cc1)c1ccc(N(CCC#N)CCC#N)cc1C
inactive: [1] 89.1 µM | [3] 32.6 µM | [4] 42.6 µM | [5] > 100 µM | [6] 39.7 µM | [7] 33.7 µM | [8] 2.19 µM | [9] 32.3 µM | [10] 63 µM | [11] 18.7 µM | [12] > 100 µM | [13] 25.5 µM | [14] 32.5 µM | [15] 24.1 µM | [16] 29.3 µM | [17] 47.5 µM | [18] 20.8 µM | [19] 43.9 µM
active: [2] 0.693 µM

COc1cc(/C=C2\N=C(c3ccccc3)N(c3nc4c(Cl)cc(Cl)cc4s3)C2=O)ccc1O
inactive: [1] 25.8 µM | [2] 13.6 µM | [3] 34.8 µM | [4] 19.8 µM | [5] 21.3 µM | [6] 27.7 µM | [7] 29.1 µM | [9] 28.3 µM | [10] 31 µM | [11] 24.2 µM | [12] 71 µM | [13] 20.9 µM | [14] 55.7 µM | [15] 39.3 µM | [16] 11.1 µM | [17] 32.4 µM | [18] 24.8 µM | [19] 22.9 µM
